Reference: US20240294551A1 (AMGEN INC., priority 2022, published 2024)
Read-outs that look alike come from different tables or passages of the source.

Assays:
[1] = system: AsPC-1 cells; test: AsPC-1 CTG Assay (CellTiter-Glo cell viability); format: cell-based, human; settings: Homo sapiens, ASPC1, 72 h, first value of the cell, read-out: G12D/C/V Cell Proliferation CTG (72 h) AsPC-1
Procedure: AsPC-1 and SW620 CTG Assay Protocols
AsPC-1 (human pancreatic adenocarcinoma; ATCC CRL-1682) or SW620 (human colon adenocarcinoma; ATCC CCL-227) cells were cultured in RPMI 1640 medium containing 10% fetal bovine serum and 1× penicillin/streptomycin/L-glutamine. Cells were seeded in 384-well plates at a density of 3.33E+04 cells/mL and incubated at 37° C., 5% CO2, overnight. Serially-diluted compound or DMSO was added to the cells, and plates were incubated at 37° C., 5% CO2 for 72 h. Cell viability was measured using a CellTiter-Glo® Luminescent Cell Viability Assay kit (Promega) according to the manufacturer's protocol. The luminescence signal of treated samples was normalized to DMSO control, and data were analyzed using a 4-parameter logistic model to calculate IC50 values.

[2] = system: Phosphorylation of ERK1/2 in AsPC-1 cells; test: Phospho-ERK1/2 MSD Assay; format: cell-based, human; settings: Homo sapiens, ASPC1, 2 h
Outline: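 Read-out: MSD electrochemiluminescent detection of phosphorylated ERK1/2 in whole-cell lysates, fitted to a 4-parameter logistic curve for IC50. Prior to lysis, AsPC-1 cells (25,000 per well) received a 2 h compound dose-response at 37 °C.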

[3] = molecular target: GDP-bound KRAS protein (aa 1-169), containing both G12D and C118A amino acid substitutions (Homo sapiens (Human), UniProt P01116, C118A/G12D); test: KRAS G12D Coupled Nucleotide Exchange Assay; format: biochemical; settings: read-out: KRAS G12D Coupled Exchange IC50
GDP-bound KRAS protein (aa 1-169), containing both G12D and C118A amino acid substitutions, sequence (P01116 other isoform, or with tags, fused parts or gaps G12D/C118A): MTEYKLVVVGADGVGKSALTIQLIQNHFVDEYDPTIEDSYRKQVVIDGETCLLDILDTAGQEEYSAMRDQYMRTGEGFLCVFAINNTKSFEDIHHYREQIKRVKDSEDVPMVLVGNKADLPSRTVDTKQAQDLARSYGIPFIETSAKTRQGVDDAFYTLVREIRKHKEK

[4] = molecular target: His-tagged KRAS G12D protein (Homo sapiens (Human), UniProt P01116, G12D); test: KRAS G12D TR-FRET Assay; format: binding; settings: read-out: KRAS G12D Binding IC50
His-tagged KRAS G12D protein, sequence (P01116 other isoform, or with tags, fused parts or gaps G12D): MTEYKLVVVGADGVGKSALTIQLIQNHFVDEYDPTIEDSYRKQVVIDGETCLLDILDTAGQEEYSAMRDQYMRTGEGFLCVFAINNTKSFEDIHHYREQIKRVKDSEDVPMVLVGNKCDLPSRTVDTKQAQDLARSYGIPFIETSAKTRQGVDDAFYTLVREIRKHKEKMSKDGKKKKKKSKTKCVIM
Outline: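 His-tagged KRAS G12D (diluted to 20 nM in pH 7.4 HEPES buffer with 10 mM MgCl2 and 10 μM GDP) was preincubated with titrated compound for 30 min at room temperature. Biotinylated KRPep-2d peptide (diluted to 20 nM) was then added for 1 h, and displacement was monitored by TR-FRET.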

[5] = read-out: 2 h p-ERK (AsPC-1 cells), IC50

Row | SMILES | IC50 ([1]; AsPC-1, 72 h) [µM] | IC50 [2, 5] [µM] | IC50 ([1]; AsPC-1 cells (G12D), 72 h) [µM] | IC50 ([2]; read-out: 2 h p-ERK (AsPC-1 cells)) [µM] | IC50 [3] [µM] | IC50 [4] [µM]
1 | CC12COCCN(C1)c1nc(OC[C@@]34CCCN3C[C@H](F)C4)nc3cc(nnc13)-c1c(c(Cl)cc3[nH]ncc13)CCCOC(=O)O2 (stereo in doubt) [Example 362, (26R)-18-chloro-4-(((2R,7aS)-2-fluorotetrahydro-1H-pyrrolo[1,2-a]pyrrol-7a(5H)-yl)methoxy)-26-methyl-23,25,28-trioxa-1,3,5,8,9,14,15-heptaazahexacyclo[24.4.1.1~6,10~.0~2,7~.0~11,19~.0~12,16~]dotriaconta-2,4,6(32),7,9,11,13,16,18-nonaen-24-one] | 1.45 | 0.133 |  |  |  | 
2 | [2H]C([2H])([2H])[C@@]12COCCN(C1)c1nc(OC[C@@]34CCCN3C[C@H](F)C4)nc3c(F)c(ncc13)-c1c(c(C)cc3[nH]ncc13)CCCOC(=O)O2 [Example 352, (26S)-32-fluoro-4-(((2R,7aS)-2-fluorotetrahydro-1H-pyrrolo[1,2-a]pyrrol-7a(5H)-yl)methoxy)-18-methyl-26-(~2~H_3_)methyl-23,25,28-trioxa-1,3,5,9,14,15-hexaazahexacyclo[24.4.1.1~6,10~.0~2,7~.0~11,19~.0~12,16~]dotriaconta-2,4,6,8,10(32),11,13,16,18-nonaen-24-one] | 0.103 | 0.0082 |  |  | 0.002 | 
3 | O=C1OCCc2c(Cl)cc3[nH]ncc3c2-c2ncc3c(nc(OC[C@@]45CCCN4C[C@H](F)C5)nc3c2F)N2CCC[C@]3(C[C@@H](CO3)O1)C2 [Example 315, (1S,4S)-11-chloro-33-fluoro-25-(((2R,7aS)-2-fluorotetrahydro-1H-pyrrolo[1,2-a]pyrrol-7a(5H)-yl)methoxy)-2,5,7-trioxa-14,15,20,24,26,28-hexaazaheptacyclo[26.3.1.1~1,4~.1~19,23~.0~10,18~.0~13,17~.0~22,27~]tetratriaconta-10,12,15,17,19(33),20,22,24,26-nonaen-6-one] | 0.023 | 0.0208 |  |  |  | 
4 | Cn1ncc2cc(Cl)c3c(c21)-c1ncc2c(nc(OC[C@@]45CCCN4C[C@H](F)C5)nc2c1F)N1CCOC[C@H](C1)OC(=O)OCCC3 [Example 335, (26S)-18-chloro-32-fluoro-4-(((2R,7aS)-2-fluorotetrahydro-1H-pyrrolo[1,2-a]pyrrol-7a(5H)-yl)methoxy)-13-methyl-23,25,28-trioxa-1,3,5,9,13,14-hexaazahexacyclo[24.4.1.1~6,10~.0~2,7~.0~11,19~.0~12,16~]dotriaconta-2,4,6,8,10(32),11,14,16,18-nonaen-24-one] |  | 1.26 |  |  | 0.009 | 0.044
5 | Cc1cc2[nH]ncc2c2c1C[C@H](C)CCOC[C@@H]1CCCN(C1)c1nc(OC[C@@]34CCCN3C[C@H](F)C4)nc3c(F)c-2ncc13 [Example 251, (12S,17R)-30-fluoro-24-(((2R,7aS)-2-fluorotetrahydro-1H-pyrrolo[1,2-a]pyrrol-7a(5H)-yl)methoxy)-9,12-dimethyl-15-oxa-5,6,21,23,25,29-hexaazahexacyclo[24.3.1.1~17,21~.0~2,10~.0~3,7~.0~22,27~]hentriaconta-1(30),2,4,7,9,22,24,26,28-nonaene] |  | 0.381 |  |  | 0.008 | 0.015
6 | O=C1CCCc2c(F)ccc3cccc(c23)-c2ncc3c(nc(OC[C@@]45CCCN4C[C@H](F)C5)nc3c2F)N2CCC[C@H](C2)N1 [Example 68, (15R)-22,31-Difluoro-8-(((2R,7aS)-2-fluorotetrahydro-1H-pyrrolo[1,2-a]pyrrol-7a(5H)-yl)methoxy)-3,7,9,11,16-pentaazahexacyclo[19.7.1.1˜2,6˜.1˜11,15˜.0˜5,10˜.0˜25,29˜]hentriaconta-1(28),2(31),3,5,7,9,21,23,25(29),26-decaen-17-one 2,2,2-trifluoroacetate] |  | 0.931 |  |  | 0.016 | 0.033
7 | Fc1c2ncc3c(nc(OC[C@@]45CCCN4C[C@H](F)C5)nc13)N1CCO[C@@H](COCC(F)(F)CCc3c(Cl)cc4[nH]ncc4c3-2)C1 [Example 150, (17R)-9-Chloro-13,13,30-trifluoro-24-(((2R,7aS)-2-fluorotetrahydro-1H-pyrrolo[1,2-a]pyrrol-7a(5H)-yl)methoxy)-15,18-dioxa-5,6,21,23,25,29 hexaazahexacyclo[24.3.1.1˜17,21˜.0˜2,10˜.0˜3,7˜.0˜22,27˜]hentriaconta-1(30),2,4,7,9,22,24,26,28-nonaene] |  | 0.306 |  |  | 0.017 | 0.033
8 | Fc1c2ncc3c(nc(OC[C@@]45CCCN4C[C@H](F)C5)nc13)N1CCOC(C1)c1cnn(n1)CCCc1c(Cl)cc3[nH]ncc3c1-2 (stereo partly drawn) [Example 294, 9-chloro-31-fluoro-25-(((2R,7aS)-2-fluorotetrahydro-1H-pyrrolo[1,2-a]pyrrol-7a(5H)-yl)methoxy)-19-oxa-5,6,14,15,22,24,26,30,33-nonaazaheptacyclo[25.3.1.1~14,17~.1~18,22~.0~2,10~.0~3,7~.0~23,28~]tritriaconta-1(31),2,4,7,9,15,17(33),23,25,27,29-undecaene] |  | 0.0551 |  |  | 0.009 | 0.02

Next, values leading:

Row | IC50 ([1]; AsPC-1, 72 h) [µM] | IC50 [2, 5] [µM] | IC50 ([1]; AsPC-1 cells (G12D), 72 h) [µM] | IC50 ([2]; read-out: 2 h p-ERK (AsPC-1 cells)) [µM] | IC50 [3] [µM] | IC50 [4] [µM] | SMILES
9 | 0.06 | 0.007 |  |  |  |  | Fc1c2ncc3c(nc(OC[C@@]45CCCN4C[C@H](F)C5)nc13)N1CCC[C@H](C1)c1coc(n1)CCCc1c(Cl)cc3[nH]ncc3c1-2 [Example 157, (18R)-9-chloro-31-fluoro-25-(((2R,7aS)-2-fluorotetrahydro-1H-pyrrolo[1,2-a]pyrrol-7a(5H)-yl)methoxy)-15-oxa-5,6,22,24,26,30,33-heptaazaheptacyclo[25.3.1.1~14,17~.1~18,22~.0~2,10~.0~3,7~.0~23,28~]tritriaconta-1(31),2,4,7,9,14(33),16,23,25,27,29-undecaene]
10 |  |  | 1.57 | 0.236 |  |  | O[C@@H]1CCOCCc2c(Cl)cc3[nH]ncc3c2-c2ncc3c(nc(OC[C@@]45CCCN4C[C@H](F)C5)nc3c2F)N2CCC[C@@H]1C2 [Example 404, (16R,17R)-9-Chloro-30-fluoro-24-(((2R,7aS)-2-fluorotetrahydro-1H-pyrrolo[1,2-a]pyrrol-7a(5H)-yl)methoxy)-13-oxa-5,6,21,23,25,29-hexaazahexacyclo[24.3.1.1~17,21~.0~2,10~.0~3,7~.0~22,27~]hentriaconta-1(30),2,4,7,9,22,24,26,28-nonaen-16-ol]
11 |  | 0.169 |  |  | 0.004 | 0.007 | Cc1cc2[nH]ncc2c2c1CCCCC(=O)N(C)[C@@H]1CCCN(C1)c1nc(OC[C@@]34CCCN3C[C@H](F)C4)nc3c(F)c-2ncc13 [Example 50, (17R)-30-fluoro-24-(((2R,7aS)-2-fluorotetrahydro-1H-pyrrolo[1,2-a]pyrrol-7a(5H)-yl)methoxy)-9,16-dimethyl-5,6,16,21,23,25,29-heptaazahexacyclo[24.3.1.1~17,21~.0~2,10~.0~3,7~.0~22,27~]hentriaconta-1(30),2,4,7,9,22,24,26,28-nonaen-15-one]
12 |  | 10 |  |  | 1 | 3.27 | O=C1N[C@H]2CC[C@@H](O)CN(C2)c2nc(OC[C@@]34CCCN3C[C@H](F)C4)nc3c(F)c(ncc23)-c2c(c(Cl)cc3[nH]ncc23)CCCO1 (racemic) [Example 283, (26S,29R)-18-chloro-32-fluoro-4-(((2R,7aS)-2-fluorotetrahydro-1H-pyrrolo[1,2-a]pyrrol-7a(5H)-yl)methoxy)-29-hydroxy-23-oxa-1,3,5,9,14,15,25-heptaazahexacyclo[24.4.1.1~6,10~.0~2,7~.0~11,19~.0~12,16~]dotriaconta-2,4,6(32),7,9,11,13,16,18-nonaen-24-one]
13 |  | 0.926 |  |  | 0.017 | 0.028 | C[C@H]1CCOC[C@H]2CN(CCO2)c2nc(OC[C@@]34CCCN3C[C@H](F)C4)nc3c(F)c(ncc23)-c2c(c(Cl)cc3[nH]ncc23)C1 [Example 252, (12R,17R)-9-chloro-30-fluoro-24-(((2R,7aS)-2-fluorotetrahydro-1H-pyrrolo[1,2-a]pyrrol-7a(5H)-yl)methoxy)-12-methyl-15,18-dioxa-5,6,21,23,25,29-hexaazahexacyclo[24.3.1.1~17,21~.0~2,10~.0~3,7~.0~22,27~]hentriaconta-1(30),2,4,7,9,22,24,26,28-nonaene]
14 |  | 1.46 |  |  | 0.141 | 0.119 | O=C1CCCOc2ccc3[nH]ncc3c2-c2ncc3c(nc(OC[C@@]45CCCN4C[C@H](F)C5)nc3c2F)N2CCC[C@H](C2)O1 [Example 30, (17R)-30-Fluoro-24-(((2R,7aS)-2-fluorotetrahydro-1H-pyrrolo[1,2-a]pyrrol-7a(5H)-yl)methoxy)-11,16-dioxa-5,6,21,23,25,29-hexaazahexacyclo[24.3.1.1˜17,21˜.0˜2,10˜.0˜3,7˜.0˜22,27˜]hentriaconta-1(30),2,4,7,9,22,24,26,28-nonaen-15-one]
